Data: patent US9290541B2, “TCL1 peptides for immunotherapy” (Board of Regents, The University of Texas System, priority 2011, dated 2016)

How the values were obtained:
[1] = system: T2 cells; experiment: 4-hour 51Cr-release cytotoxicity assay with peptide-pulsed T2 cells; format: cell-based, human; details: 4-hour 51Cr release
Protocol: (§1) FIGS. 3A-E: TCL1-specific cytotoxic T cells can be generated from normal donors. (FIG. 3A) PBMCs from HLA-A2^+ normal donors were stimulated with overlapping 15-mer peptides spanning the entire length of the TCL1 protein (see Table 2). T cells from each condition were washed and incubated with autologous CD3-depleted PBMC as antigen-presenting cells (APC) in the presence or absence of the corresponding peptide. After 18 hours, the production of IFN-γ was determined in the supernatants by ELISA. Asterisk indicates significant IFN-γ production compared with control (P<0.05). Representative data from one of three normal donors tested is shown. (FIG. 3B) T cell lines generated from HLA-A2^+ normal donors using TCL165-79 peptide were incubated with APC in the presence or absence of the TCL165-79 peptide or control HIV Gag77-85 peptide, and intracellular cytokine assay was performed. The percentage of CD4^+ and CD8^+ T cells producing IFN-γ are shown. (FIG. 3C) TCL165-79 peptide-specific T cells were incubated with T2 cells or EBV-transformed B lymphoblastoid cell lines (IHW1003, IHW1019, IHW1089, and IHW1135) mismatched at their MHC class I locus in the presence of the TCL165-79 peptide or control HIV Gag77-85 peptide. IFN-γ production was determined as in (FIG. 3A). The HLA-A alleles for each of the cell lines are shown. (FIG. 3D, FIG. 3E) A 4-hour ^51Cr-release cytotoxicity assay was performed. TCL165-79 peptide-specific T cells were incubated with T2 cells alone or T2 cells pulsed with TCL165-79 peptide or control HIV Gag77-85 peptide, at various effector:target ratios. For MHC blocking assay, an effector:target ratio of 20:1 was used in the presence or absence of isotype control antibody or blocking antibodies against MHC class I, MHC class II, HLA-A2, or HLA-B and C. All cytotoxicity assays were performed in triplicate wells and mean and standard deviation are shown.
(§2) FIGS. 4A-D: TCL171-78 is the minimal HLA-A*0201-binding peptide. (FIG. 4A) TCL165-79 peptide-specific T cells derived from HLA-A2^+ normal donors were incubated in the presence or absence of T2 cells and TCL165-79 derived truncated peptides (SEQ ID NOS:1-2; SEQ ID NOS:12-17; SEQ ID NOS:3-11; and SEQ ID NO:18) Flu matrix peptide (FMP58-66) and Gag77-85 peptide were used as controls. After 18 hours, the production of IFN-γ was determined in the supernatants by ELISA. (FIG. 4B) T2 cells were incubated with TCL165-79-derived truncated peptides (SEQ ID NOS:1-2; SEQ ID NOS:12-17; SEQ ID NOS:3-11; and SEQ ID NO:18), and the HLA-A2 binding affinity of each peptide was determined by flow cytometry. The T2 binding index was calculated as described in Materials and Methods. […] (FIG. 4D) TCL165-79 peptide-specific CD8^+ T cells or irrelevant T-cell line were stained with TCL171-78 or HIV Gag77-85 tetramers and analyzed by flow cytometry. […]
(§3) FIGS. 6A-E: TCL171-78 peptide-specific T cells can be generated from lymphoma patients. (FIG. 6A) PBMC and tumor-infiltrating lymphocytes (TILs) derived from HLA-A2^+ patients with chronic lymphocytic leukemia (CLL) or follicular lymphoma (FL) were stimulated in vitro with TCL165-79 After five stimulations, IFN-γ production in response to TCL165-79 peptide was determined as in FIG. 3A. […]

[2] = system: autologous FL tumor cells; experiment: Mechanism of cytotoxicity of TCL1-specific CTLs against autologous follicular lymphoma cells; format: cell-based, human; details: effector:target 20:1; 4 hour chromium-51 release; antibodies 10 μg/ml
Protocol: FIG. 10: Mechanism of cytotoxicity of TCL1-specific CTLs against autologous follicular lymphoma cells. TCL1-specific T cells were generated from PBMC obtained from a FL patient and cultured with autologous FL tumor cells preincubated with or without 10 μg/ml of MHC class I, class II, and isotype control antibodies at a ratio of 20:1 (Effector:Target). A standard 4 hour chromium-51 release assay was performed. MHC class I but not MHC class II or isotype control antibodies inhibited the cytolysis autologous lymphoma cells.

[3] = molecular target: T1, HLA-A2 (Homo sapiens, UniProt P04439, D140Y/D185E/D98H/E176V/E277Q/G131W/G231S/I119V/I121R/I166T/I218V/L300P/L318F/N151K/N90K/P208A/P217A/Q86G/Q94H/R138H/R169H/T345S); experiment: HLA-A2-binding assay (T2 binding index); details: T2 cells, 20 μg/ml peptide, 24 hours
T1 construct: endogenous in cells; host or cells: T2 hybridoma cells (TAP-deficient, HLA-A2+)
Protocol: as §2
TAP-deficient T2 cells were incubated with 20 μg/ml of peptides and 3 μg/ml of β2-microglobulin (Sigma-Aldrich, Cat # M4890) for 24 hours at 37° C. and 5% CO2 in air. The cells were then stained with anti-HLA-A2 PE antibody (BD Biosciences, Cat #560168), and the level of HLA-A2 expression was determined by flow cytometry. […]

[4] = system: TCL165-79 peptide-specific T cells; experiment: IFN-γ ELISA of peptide-specific T cells with peptide-pulsed T2 cells or B lymphoblastoid cell lines; format: cell-based, human; details: normal donor-derived T cells; 18 hours
Protocol: as §1, with “All cytotoxicity assays were performed in triplicate wells and mean and standard deviation are shown.” left out
as §2, with “(FIG. 4A) TCL165-79 peptide-specific T cells derived from HLA-A2^+ normal donors were incubated in the presence or absence of T2 cells and TCL165-79 derived truncated peptides (SEQ ID NOS:1-2; SEQ ID NOS:12-17; SEQ ID NOS:3-11; and SEQ ID NO:18) Flu matrix peptide (FMP58-66) and Gag77-85 peptide were used as controls.” left out
as §3

[5] = system: CD8+ T cells; experiment: Tetramer staining by flow cytometry; format: cell-based, human; details: for percentage of tetramer positive CD8+ T cells, median / percentage of tetramer positive CD8+ T cells, range: two in vitro stimulations with TCL165-79
Protocol: FIGS. 4A-D: TCL171-78 is the minimal HLA-A*0201-binding peptide. (FIG. 4A) TCL165-79 peptide-specific T cells derived from HLA-A2^+ normal donors were incubated in the presence or absence of T2 cells and TCL165-79 derived truncated peptides (SEQ ID NOS:1-2; SEQ ID NOS:12-17; SEQ ID NOS:3-11; and SEQ ID NO:18) Flu matrix peptide (FMP58-66) and Gag77-85 peptide were used as controls. After 18 hours, the production of IFN-γ was determined in the supernatants by ELISA. (FIG. 4B) T2 cells were incubated with TCL165-79-derived truncated peptides (SEQ ID NOS:1-2; SEQ ID NOS:12-17; SEQ ID NOS:3-11; and SEQ ID NO:18), and the HLA-A2 binding affinity of each peptide was determined by flow cytometry. The T2 binding index was calculated as described in Materials and Methods. (FIG. 4C) TCL165-79 (SEQ ID NO:1) peptide-specific T cells were incubated with T2 cells pulsed with TCL165-79-derived truncated peptides (SEQ ID NO:1; SEQ ID NO:8; SEQ ID NO:10; SEQ ID NO:11; SEQ ID NO:18) or control HIV Gag77-85 peptide and a 4-hour ^51Cr-release cytotoxicity assay was performed. The percent specific lysis is shown. (FIG. 4D) TCL165-79 peptide-specific CD8^+ T cells or irrelevant T-cell line were stained with TCL171-78 or HIV Gag77-85 tetramers and analyzed by flow cytometry. The percentage of tetramer positive T cells is shown. Data in panels A-D are representative of three independent experiments each.
FIGS. 6A-E: TCL171-78 peptide-specific T cells can be generated from lymphoma patients. (FIG. 6A) PBMC and tumor-infiltrating lymphocytes (TILs) derived from HLA-A2^+ patients with chronic lymphocytic leukemia (CLL) or follicular lymphoma (FL) were stimulated in vitro with TCL165-79 After five stimulations, IFN-γ production in response to TCL165-79 peptide was determined as in FIG. 3A. (FIG. 6B, FIG. 6E) The cytotoxic function of TCL165-79 peptide-specific T cells generated above was tested against T2 cells pulsed with TCL165-79 peptide or HIV Gag77-85 peptide (FIG. 6B) or primary autologous or allogeneic HLA-A2^+ or HLA-A2^− mantle cell lymphoma (MCL Tu) or FL tumor cells (FL Tu) or tumor-free PBMC from MCL3 and FL5 patients (MCL3-PB and FL5-PB) or HLA-A2^+ MCF-7 cell line (FIG. 6E). (FIG. 6C) The percentage of tetramer positive CD8^+ T cells in each of the TCL1-specific T-cell lines generated from lymphoma patients is shown. (FIG. 6D) The expression of TCL1 in each of the primary lymphoma samples as determined by flow cytometry is shown. All cytotoxicity assays were performed in triplicate wells and mean and standard deviation are shown. CLL1-PB-T: TCL1-specific CTL generated from peripheral blood T cells of CLL patient 1; FL5-PB-T: TCL1-specific CTL generated from peripheral blood T cells of FL patient 5; FL5-TILs-T: TCL1-specific CTL generated from tumor infiltrating T cells of FL patient 5.
FIGS. 7A-B: TCL171-78 peptide-specific T cells are increased in lymphoma patients. PBMCs from HLA-A2^+ normal donors (ND, n=8) or lymphoma patients [chronic lymphocytic leukemia (CLL, n=2), mantle cell lymphoma (MCL, n=5); follicular lymphoma (FL, n=4); diffuse large B-cell lymphoma (n=2); splenic marginal zone B-cell lymphoma (SMZL, n=2)] were stimulated in vitro twice with TCL165-79 peptide and stained with TCL171-78 tetramer or HIV Gag77-85 tetramer. Representative data of the tetramer staining (FIG. 7A) and results from all samples analyzed (FIG. 7B) are shown. P value on the top of graph represents comparison between normal donors and all lymphoma patient samples. P values to the right represent comparison between normal donors and patients from each lymphoma subtype. All P values were calculated by two-tailed Student's t test.
Flow cytometry. For intracellular staining, tumor or normal B cells were first surface stained with CD3 and CD20 and then fixed and permeabilized using BD Biosciences Cytofix/Cytoperm™ Plus Fixation/Permeabilization kit as per manufacturer's instructions. […]

[6] = PBMC of HLA-A2+ lymphoma patients (N=15)

With LLPIMWQLY [TCL171-79] the “lysis of T2 cells pulsed with truncated peptides by TCL165-79 peptide-specific T cells” value (from here on “lysis of T2 cells pulsed”) [1] was “specifically lysed”.
For SLLPIMWQL [TCL170-79], the “lysis of T2 cells pulsed” value [1] was “specifically lysed”.
In the case of `C/C=C/[C@H]1O[C@@](O)([C@@H](C)[C@H](O)[C@H](C)[C@H]2OC(=O)/C(OC)=C/C(C)=C/[C@@H](C)[C@@H](O)[C@@H](CC)[C@@H](O)[C@H](C)C/C(C)=C/C=C/[C@@H]2OC)C[C@@H](O[C@H]2C[C@@H](O)[C@H](OC(N)=O)[C@@H](C)O2)[C@@H]1C` [Concanamycin A], the “inhibition of cytolysis of autologous lymphoma cells by TCL1-specific CTLs” value [2] is reported as “significantly inhibited”.
With LLPIMWQL [TCL171-78] the “binding to HLA-A2” value [3] was “bound to HLA-A2”, the “IFN-γ production by TCL165-79 peptide-specific T cells with T2 cells pulsed with truncated peptides” value [4] was “induced significant IFN-γ production” and the “percentage of tetramer positive CD8+ T cells, median” value [5, 6] was 2.8%. The “percentage of tetramer positive CD8+ T cells, range” value [5, 6] was 0.88-6%, the “tetramer positive CD8+ T cells” value ([5]; T-cell lines from lymphoma patients, TCL171-78 tetramer) was 10.8-23% and the “percentage of tetramer positive CD8+ T cells, median” value ([5]; normal donor PBMC (N=8)) was 1.35%. The “percentage of tetramer positive CD8+ T cells, range” value ([5]; normal donor PBMC (N=8)) was 0.38-2.2%, the “tetramer positive TCL165-79 peptide-specific CD8+ T cells” value ([5]; normal donor-derived T cell line, TCL171-78 tetramer) was 8.2% and the “lysis of T2 cells pulsed” value [1] was “specifically lysed”.
